Experimental findings from US9981909B2 (Janssen Pharmaceutica NV, priority 2008, dated 2018) are described below.

Each structure is given as a SMILES string.

For test [1], the target named is rat 5-HT7 receptor (Rattus norvegicus (Rat), UniProt P32305). The test is described as follows: r5-HT7 binding assay, competitive radioligand binding with [3H]5-CT. The method in brief: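 For antagonism, cells expressing the rat receptor are pretreated with compound (10 min) and stimulated with 100 nM 5-CT (20 min). Lysates are assayed for cAMP by competitive immunoassay. Binding uses [3H]5-CT competition on HEK-293 membranes, giving Ki.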

Test [2] deals with r5-HT7 receptor (Rattus norvegicus (Rat), UniProt P32305). Nature of the test: HitHunter cAMP assay, antagonist testing against 100 nM 5-CT. The class given is cell-based. The settings on record: antagonist testing, 100 nM 5-CT challenge, HEK-293 r5-HT7; read-out: R5HT7 cAMP pKb (converted). As to the method:
(§1) Receptor binding was performed using membrane fractions prepared from the HEK-293 cell line recombinantly expressing rat 5-HT7 receptors (NCBI accession NM_022938). Compound affinity for the rat 5-HT7 receptor subtype was evaluated by competitive radioligand binding assays using 5-carboxamido[^3H]tryptamine ([^3H]5-CT) (Amersham Biosciences, cat. 90000403) detection. HitHunter™ cAMP assays are in-vitro based competitive immunoassays. The assay was performed on the HEK-293 cell line stably transfected with r5-HT7 receptor. Cells were pre-incubated with test compounds for 10 minutes. For antagonist testing, the cells were then challenged with 100 nM 5-CT for 20 minutes. Cells were then lysed and cAMP measured according to manufacturers protocol (Amersham, cat. NET791250UC) or [^3H]mesulergine (Amersham, cat. TRK1041). The assay was performed on membranes prepared from HEK-293 cells stably transfected with h5-HT6. Following centrifugation, membranes were resuspended and incubated for 60 min at room temperature with 1.7 nM [^3H]LSD in the presence of increasing concentration of test compounds. Nonspecific binding was defined in the presence of 10 μM clozapine (Tocris, cat. TRK1068). Homogenized HEK-293 membranes expressing the human SERT were incubated in 50 mM Tris-HCl (pH 7.5), 120 mM NaCl, 5 mM KCl with [^3H]-citalopram (3 nM) with or without test compounds. Nonspecific binding was determined in the presence of 10 μM fluoxetine. Radioactivity readouts and Ki values were performed as previously described for r5-HT7. […] Compounds were assayed in their free form or as salts, as indicated in the Examples section above.
(In general: Changes in cAMP serve as a functional read-out for many G protein-coupled receptors.)

The target of test [3] is human SERT (Homo sapiens (Human), UniProt P31645). Nature of the test: human SERT binding assay with [3H]-citalopram on HEK-293 membranes. The settings on record: read-out: hSERT binding Ki. The protocol: as §1
Setting [4] is: rat 5-HT7 receptor, HEK-293 membranes.

Sequence of human SERT (P31645 whole entry): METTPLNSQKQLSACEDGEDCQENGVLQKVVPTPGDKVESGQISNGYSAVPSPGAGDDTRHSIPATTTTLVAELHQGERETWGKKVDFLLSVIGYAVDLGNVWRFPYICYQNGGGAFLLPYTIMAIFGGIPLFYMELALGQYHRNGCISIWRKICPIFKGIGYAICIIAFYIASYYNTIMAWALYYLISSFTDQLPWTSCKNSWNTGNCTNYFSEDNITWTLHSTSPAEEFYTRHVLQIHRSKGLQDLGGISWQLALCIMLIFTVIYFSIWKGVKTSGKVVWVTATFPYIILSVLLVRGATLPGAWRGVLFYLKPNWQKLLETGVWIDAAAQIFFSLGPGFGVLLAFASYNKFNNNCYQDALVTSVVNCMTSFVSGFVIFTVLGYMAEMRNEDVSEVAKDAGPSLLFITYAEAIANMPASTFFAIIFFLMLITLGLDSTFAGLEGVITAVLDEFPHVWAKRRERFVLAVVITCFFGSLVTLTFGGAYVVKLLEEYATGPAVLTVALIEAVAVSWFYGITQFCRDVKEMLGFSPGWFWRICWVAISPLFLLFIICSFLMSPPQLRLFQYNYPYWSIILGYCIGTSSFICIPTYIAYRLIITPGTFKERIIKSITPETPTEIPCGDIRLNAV
Sequence of r5-HT7 receptor (P32305 1-435): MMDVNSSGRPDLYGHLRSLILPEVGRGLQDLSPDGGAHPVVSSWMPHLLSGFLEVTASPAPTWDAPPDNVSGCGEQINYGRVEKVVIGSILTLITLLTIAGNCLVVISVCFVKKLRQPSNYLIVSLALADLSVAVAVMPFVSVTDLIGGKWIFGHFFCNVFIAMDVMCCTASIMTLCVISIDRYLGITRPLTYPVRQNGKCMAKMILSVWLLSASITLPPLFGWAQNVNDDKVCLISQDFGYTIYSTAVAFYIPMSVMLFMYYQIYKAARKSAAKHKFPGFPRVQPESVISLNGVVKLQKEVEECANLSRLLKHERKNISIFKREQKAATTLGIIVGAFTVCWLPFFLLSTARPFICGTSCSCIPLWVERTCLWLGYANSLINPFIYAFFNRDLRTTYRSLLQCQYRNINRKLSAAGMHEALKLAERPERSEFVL
Sequence of rat 5-HT7 receptor (P32305 1-435): as above

By Ki is commonly meant the equilibrium dissociation constant of an inhibitor or competing ligand from its target. As for `Brc1cccc(Oc2ccc(Br)cc2OC2CNC2)c1` [Example 245, 3-[5-Bromo-2-(3-bromo-phenoxy)-phenoxy]-azetidine], in test [1] (rat 5-HT7, HEK-293 membranes), the affinity corresponds to a Ki of 9 nM. In test [2], the Kb was 200 nM.

As to `CC(Oc1ccc(Br)cc1OC1CNC1)c1cccc(C(F)(F)F)c1` (racemic) [Example 112, (±)-3-[5-Bromo-2-[1-(3-trifluoromethyl-phenyl)-ethoxy]-phenoxy]-azetidine], in test [1] (setting [4]), the affinity corresponds to a Ki of 23 nM. Further, in test [2], the Kb was 31.6 nM.

For the compound `FC(F)(F)Oc1cccc(Oc2ccc(Br)cc2OC2CNC2)c1` [Example 253, 3-[5-Bromo-2-(3-trifluoromethoxy-phenoxy)-phenoxy]-azetidine], in test [1] (rat 5-HT7, HEK-293 membranes), the Ki was found to be 18 nM. For the same compound, the Kb in test [2] is 501 nM.

Regarding `O=C(c1ccc(Cl)cc1)c1ccc(Br)cc1OC1CNC1` [Example 281, [2-(Azetidin-3-yloxy)-4-bromo-phenyl]-(4-chloro-phenyl)-methanone], the Ki in test [1] (rat 5-HT7, HEK-293 membranes) was 48 nM. The Kb in test [2] is 316 nM.

In turn, `CN1CCC(Oc2cc(Br)ccc2OCc2cccc(Cl)c2)CC1` [Example 66, 4-[5-Bromo-2-(3-chloro-benzyloxy)-phenoxy]-1-methyl-piperidine] displayed a Ki in test [1] (setting [4]) of 10 nM. The Kb in test [2] was 50.1 nM.

Regarding `CC(Oc1ccc(Cl)cc1OC1CN(Cc2ccccc2)C1)c1cccc(C(F)(F)F)c1` (racemic) [Example 108, (±)-1-Benzyl-3-[5-chloro-2-[1-(3-trifluoromethyl-phenyl)-ethoxy]-phenoxy]-azetidine], the results for the Ki in test [1] (setting [4]) and in test [3] were 36 nM and 5000 nM, respectively.

Consider `CC1(Oc2cc(Br)ccc2OCc2cccc(Cl)c2)CNC1` [Example 212, 3-[5-Bromo-2-(3-chloro-benzyloxy)-phenoxy]-3-methyl-azetidine], for which the Ki in test [1] (rat 5-HT7, HEK-293 membranes) was determined as 53 nM; in test [3], 41 nM.

`CC(Oc1ccc(Cl)cc1OC1CNC1)c1ccc(Cl)cc1` (racemic) [Example 123, (±)-3-[5-Chloro-2-[1-(4-chloro-phenyl)-ethoxy]-phenoxy]-azetidine]: the Ki was found to be 42 nM in test [1] (setting [4]) and 25 nM in test [3].

As to `Clc1cccc(COc2cc(Br)ccc2OC2CNC2)c1` [Example 22, 3-[4-Bromo-2-(3-chloro-benzyloxy)-phenoxy]-azetidine], the Ki in test [1] (setting [4]) was found to be 125 nM; in test [3], 28 nM.

As for `Clc1ccc(OCCOc2ccccc2)c(OC2CNC2)c1` [Example 171, 3-[5-Chloro-2-(2-phenoxy-ethoxy)-phenoxy]-azetidine], the Ki in test [1] (setting [4]) was 7 nM; in test [3] it was 234 nM.

On to `C[C@@H]1[C@H](Oc2cc(Br)ccc2OCc2cccc(F)c2)CN1Cc1ccccc1` (relative stereo) [Example 220, cis-1-Benzyl-3-[5-bromo-2-(3-fluoro-benzyloxy)-phenoxy]-2-methyl-azetidine], for which the Ki in test [1] (rat 5-HT7, HEK-293 membranes) came to 493 nM; in test [3] it was 789 nM.

With `CON=C(COc1ccc(Cl)cc1OC1CNC1)c1ccccc1` [Example 182, 2-[2-(Azetidin-3-yloxy)-4-chloro-phenoxy]-1-phenyl-ethanone O-methyl-oxime], the Ki in test [1] (setting [4]) came out at 76 nM; in test [3] it was 514 nM.

Take `CC(C)C1(Oc2cc(Br)ccc2OCc2cccc(Cl)c2)CNC1` [Example 214, 3-[5-Bromo-2-(3-chloro-benzyloxy)-phenoxy]-3-isopropyl-azetidine]: the Ki in test [1] (rat 5-HT7, HEK-293 membranes) turned out to be 9000 nM; in test [3], 1690 nM.

Turning to `FC(COc1ccc(Cl)cc1OC1CNC1)c1ccccc1` (stereo not shown) [Example 187, 3-[5-Chloro-2-(2-fluoro-2-phenyl-ethoxy)-phenoxy]-azetidine], the results for the Ki in test [1] (setting [4]) and in test [3] were 36 nM and 340 nM, respectively.

Turning to `C[C@H]1[C@H](Oc2cc(Br)ccc2OCc2cccc(F)c2)CN1Cc1ccccc1` (relative stereo) [Example 221, trans-1-Benzyl-3-[5-bromo-2-(3-fluoro-benzyloxy)-phenoxy]-2-methyl-azetidine], the Ki in test [1] (rat 5-HT7, HEK-293 membranes) stood at 147 nM; in test [3] it was 5000 nM.

For the compound `Clc1ccc(OCc2ccccn2)c(OC2CNC2)c1` [Example 51, 2-[2-(Azetidin-3-yloxy)-4-chloro-phenoxymethyl]-pyridine], the Ki worked out at 387 nM in test [1] (setting [4]) and 86 nM in test [3].

As to `Clc1cnc(OCc2ccccc2)c(OC2CNC2)c1` [Example 196, 3-(Azetidin-3-yloxy)-2-benzyloxy-5-chloro-pyridine], the Ki was 359 nM in test [1] (setting [4]) and 53 nM in test [3].

As for `Fc1ccc2c(c1)CC(Oc1ccc(Cl)cc1OC1CNC1)C2` (stereo not shown) [Example 175, 3-[5-Chloro-2-(5-fluoro-indan-2-yloxy)-phenoxy]-azetidine], the Ki in test [1] (setting [4]) stood at 11 nM; in test [3], 4 nM.

For `FC(F)(F)c1ccc(COc2ccc(Br)cc2OC2CCNCC2)o1` [Example 64, 4-[5-Bromo-2-(5-trifluoromethyl-furan-2-ylmethoxy)-phenoxy]-piperidine], the Ki in test [1] (setting [4]) came out at 17 nM; in test [3], 43 nM.

Take `Clc1ccc(OCc2ccc3occc3c2)c(OC2CNC2)c1` [Example 83, 3-[2-(Benzofuran-5-ylmethoxy)-5-chloro-phenoxy]-azetidine]: the Ki in test [1] (setting [4]) is 16 nM; in test [3], 24 nM.

For `Clc1cccc(COc2ccc(Br)cc2OCC2CNC2)c1` [Example 233, 3-[5-Bromo-2-(3-chloro-benzyloxy)-phenoxymethyl]-azetidine], the Ki in test [1] (rat 5-HT7, HEK-293 membranes) is 27 nM; in test [3] it was 23 nM.

As for `Clc1ccc(OCc2ccncc2)c(OC2CNC2)c1` [Example 53, 4-[2-(Azetidin-3-yloxy)-4-chloro-phenoxymethyl]-pyridine], the Ki came to 260 nM in test [1] (setting [4]) and 464 nM in test [3].

On to `CN1CC(Oc2cc(Cl)ccc2OCc2cc(CO)c(C(F)(F)F)o2)C1` [Example 77], for which the figures for the Ki in test [1] (setting [4]) and in test [3] were 153 nM and 5000 nM, respectively.

Consider `CC(Oc1ccc(Cl)cc1OC1CNC1)c1cccc(F)c1` (racemic) [Example 115, (±)-3-[5-Chloro-2-[1-(3-fluoro-phenyl)-ethoxy]-phenoxy]-azetidine], for which the Ki amounted to 33 nM in test [1] (setting [4]) and 202 nM in test [3].

Regarding `Fc1ccc(COc2ccc(Cl)cc2OC2CNC2)cc1C(F)(F)F` [Example 47, 3-[5-Chloro-2-(4-fluoro-3-trifluoromethyl-benzyloxy)-phenoxy]-azetidine], the Ki in test [1] (setting [4]) was determined as 11 nM; in test [3] it was 21 nM.

Take `Clc1ccc(OCc2cccnc2)c(OC2CNC2)c1` [Example 52, 3-[2-(Azetidin-3-yloxy)-4-chloro-phenoxymethyl]-pyridine]: the Ki stood at 110 nM in test [1] (setting [4]) and 89 nM in test [3].

As for `CSc1cccc(COc2ccc(Cl)cc2OC2CNC2)c1` [Example 26, 3-[5-Chloro-2-(3-methylsulfanyl-benzyloxy)-phenoxy]-azetidine], the Ki in test [1] (setting [4]) stood at 25 nM; in test [3], 13 nM.

Turning to `FC(F)(F)c1ccccc1COc1ccc(Cl)cc1OC1CNC1` [Example 32, 3-[5-Chloro-2-(2-trifluoromethyl-benzyloxy)-phenoxy]-azetidine], the Ki turned out to be 53 nM in test [1] (setting [4]) and 29 nM in test [3].

With `CC(Oc1ccc(Cl)cc1OC1CNC1)c1ccccc1` (racemic) [Example 145, (±)-3-[5-Chloro-2-(1-phenyl-ethoxy)-phenoxy]-azetidine], the values for the Ki in test [1] (setting [4]) and in test [3] were 40 nM and 773 nM, respectively.
